The record followed here is patent US8816092B2, “Indazole derivative or salt thereof and production intermediate thereof, and antioxidant using same, and use of indazole derivative or salt thereof” (Ube Industries, Ltd., priority 2010, dated 2014).

Structures are written as SMILES. Structures can show the parent of a compound that is named as a salt. A value given as a limit tells only on which side of the number the result lay.

The subject of this test is rat liver microsome lipid peroxidation. The test is described as follows: Antioxidation action test in rat liver microsome (microsome lipid peroxidation measuring system, TBARS generation). The format is biochemical. The settings on record: for antioxidation action: microsome lipid peroxidation measuring system using a rat liver microsome, result in words; for IC50: rat liver microsome, NADPH 500 μM + ferrous sulfate 50 μM, 20 minutes reaction, 37° C., n=2, nonlinear regression, read-out: IC50 (TBARS generation suppressing action). As to the method:
1. Antioxidation Action Test in Rat Liver Microsome
Using a microsome lipid peroxidation measuring system, an antioxidation action of a test compound was evaluated. This test quantifies a thiobarbituric acid reaction substance (TBARS) that is generated by a lipid peroxidation reaction caused by adding nicotinamide adenine dinucleotide phosphoric acid and ferrous sulfate to a microsome. To this system, a test compound is added, and a TBARS generation suppressing action by the test compound is evaluated as an antioxidation action. This method is a general method for measuring an antioxidation action of a compound or the like (Reference document: Yakugaku Zasshi 119, 93-99 (1999), Biochimica et Biophysics Acta, 1046, (1990) 207-213, Chemistry & Biology Experiment line 2, lipid peroxidation experimental method (Hirokawa shoten)).
A buffer solution was prepared by mingling to achieve 25 mM tris(hydroxymethyl)aminomethane (Tris) (pH 7.4) and 150 mM potassium chloride (KCl).
Ferrous sulfate (FeSO4.7H2O) was dissolved in distilled water to prepare a 5 mM solution.
Nicotinamide adenine dinucleotide phosphoric acid (NADPH) was dissolved in distilled water to prepare a 50 mM solution.
Ethylenediaminetetraacetic acid (EDTA) was dissolved in distilled water to prepare a 200 mM solution.
Five μL of a commercially available rat liver microsome [XENOTECH, catalog No. R1000 (20 mg protein/mL)] was used.
As a test compound, Compound A which is an inventive compound [1-[6-(4-cyclopropyl-1H-indazol-5-yl)pyridin-3-yl]-1-ethylenepropylamine hydrochloride (Example compound 2)], and Compound B having a similar compound structure [1-[6-(4-cyclopropyl-1H-indazol-5-yl)pyridin-3-yl]-1-methyl ethyl amine hydrochloride (synthesized according to a method described in European Patent Publication No. 1679308)] were used. Ten mM test compound solutions were prepared by dissolving 1.3 mg of Compound A in 0.315 mL of dimethyl sulfoxide (DMSO), and dissolving 2.15 mg of Compound B in 0.554 mL of dimethyl sulfoxide (DMSO).
[drawing 8] (Evaluation Method) 1) A test compound solution (5 μL) was put into a reaction tube. […] 7) A thiobarbituric acid reaction substance (TBARS) generation value in the reaction completed solution was measured using a commercially available TBARS measuring kit [Cayman, Catalog No. 10009055].
As a non-lipid peroxidation reaction group, a test was conducted by adding distilled water in place of nicotinamide adenine dinucleotide phosphoric acid and ferrous sulfate, and a TBARS generation value was measured. The number of examples of each group is n=2, and the TBARS generation suppressing rate (%) was calculated from an average value of n=2 according to the following formula 1, and IC50 of the test compound was measured by nonlinear regression of statistical analysis software (EXSAS). […]

With `CCC(N)(CC)c1ccc(-c2ccc3[nH]ncc3c2C2CC2)nc1` [Compound A, 1-[6-(4-cyclopropyl-1H-indazol-5-yl)pyridin-3-yl]-1-ethylpropylamine hydrochloride], the antioxidation action entry is recorded as “exhibited a strong antioxidation action” and the IC50 was 3.8 µM.

With `CC(C)(N)c1ccc(-c2ccc3[nH]ncc3c2C2CC2)nc1` [Compound B, 1-[6-(4-cyclopropyl-1H-indazol-5-yl)pyridin-3-yl]-1-methyl ethyl amine hydrochloride], the antioxidation action result was “did not exhibit a strong antioxidation action” and the IC50 was above 100 µM.
